Biological target: MTH1 (Homo sapiens, UniProt P36639)
Assay: MTH1 enzymatic assay and IC50 value determination (malachite green)
Assay type: biochemical
Conditions: MTH1 4.8 nM, dGTP 100 μM, 15 minutes at 22° C.; group: between 2 μM and 10 μM
Experimental: MTH1 Enzymatic Assay and IC50 Value Determination
MTH1 catalyzes the hydrolysis of dGTP to dGMP and PPi. By coupling the reaction to pyrophosphatase added in excess PPi is converted to Pi that can be detected by using the malachite green assay reagent. Briefly, for IC50 value determination the compound to be analyzed is diluted in assay buffer in a 1:3 dilution series generating 12 different compound concentrations giving a final DMSO concentration of 1% in the assay well. MTH1 diluted in assay buffer (100 mM Tris-acetate, 40 mM NaCl, 10 mM magnesium acetate, 1 mM DTT and 0.005% Tween 20) fortified with E. coli pyrophosphatase (0.8 U/ml) is added to a final concentration of 4.8 nM. dGTP diluted in assay buffer is added to a final concentration of 100 μM. The reaction mixture is incubated with shaking for 15 minutes at 22° C. To 100 μl reaction mixture is 25 μl Malachite green assay regent (0.095% Malachite green in 17% H2SO4, 1.5% Ammonium molybdate, 0.17% Tween 20) added followed by incubation with shaking for 15 minutes at 22° C.
The absorbance of the assay plate is read at 630 nm using an EnVision Multilabel plate reader. The IC50 value is determined by fitting a dose response curve to the data points using nonlinear regression analysis and the equation Y=Bottom+(Top−Bottom)/(1+10^((Log IC50−X)*HillSlope)), where Y is the read absorbance at 630 nm and X is log [compound].

IC50 | Compound
2000 to 10000 nM | COc1ccc(C(CNc2cc(-c3cccc(C)c3C)nc(N)n2)N2CCCC2)cc1 (stereo not drawn) [Example 345, 6-(2,3-Dimethylphenyl)-4-N-[2-(4-methoxyphenyl)-2-(pyrrolidin-1-yl)ethyl]pyrimidine-2,4-diamine]
2000 to 10000 nM | Cc1ccc(S(=O)(=O)n2cc(-c3cc(N[C@H](C)C4CC4)nc(N)n3)c3ccccc32)cc1 [Example 167, 4-N-[(1R)-1-cyclopropylethyl]-6-[1-(4-methylbenzenesulfonyl)-1H-indol-3-yl]pyrimidine-2,4-diamine]
2000 to 10000 nM | Cc1ccc(S(=O)(=O)n2cc(-c3cc(NCC(C)(C)C)nc(N)n3)c3ccccc32)cc1 [Example 182, 4-N-(2,2-dimethylpropyl)-6-[1-(4-methylbenzenesulfonyl)-1H-indol-3-yl]pyrimidine-2,4-diamine]
2000 to 10000 nM | Cc1cccc(-c2cc(NCCN3CCCCC3)nc(N)n2)c1C [Example 112, 6-(2,3-dimethylphenyl)-4-N-[2-(piperidin-1-yl)ethyl]pyrimidine-2,4-diamine]
2000 to 10000 nM | CCOC(=O)CNc1cc(-c2cccc(C)c2C)nc(N)n1 [Example 396, Ethyl 2-{[2-amino-6-(2,3-dimethylphenyl)pyrimidin-4-yl]amino}acetate]
2000 to 10000 nM | Cc1cccc(-c2cc(NC3CCCCC3NC(=O)OC(C)(C)C)nc(N)n2)c1C (mixture of isomers) [Example 372, tert-Butyl N-(2-{[2-amino-6-(2,3-dimethylphenyl)pyrimidin-4-yl]amino}cyclohexyl)-carbamate]

Same assay, conditions: MTH1 4.8 nM, dGTP 100 μM, 15 minutes at 22° C.; group: less than 200 nM

Compound | IC50
Nc1nc(NCCc2ccc(Cl)cc2)cc(-c2cccc3ncccc23)n1 [Example 266, 4-N-[2-(4-chlorophenyl)ethyl]-6-(quinolin-5-yl)pyrimidine-2,4-diamine] | < 200 nM
Nc1nc(NC2CCCC2)cc(-c2cccc(C(F)(F)F)c2)n1 [Example 57, 4-N-cyclopentyl-6-[3-(trifluoromethyl)phenyl]pyrimidine-2,4-diamine] | < 200 nM
Cc1c(C#N)cccc1-c1cc(NCCc2ccc(S(N)(=O)=O)cc2)nc(N)n1 [Example 426, 4-(2-{[2-amino-6-(3-cyano-2-methylphenyl)pyrimidin-4-yl]amino}ethyl)benzene-1-sulfonamide] | < 200 nM
Nc1nc(NCCc2ccc(S(N)(=O)=O)cc2)cc(-c2cccc(Cl)c2Cl)n1 [Example 296, 4-(2-{[2-amino-6-(2,3-dichlorophenyl)pyrimidin-4-yl]amino}ethyl)benzene-1-sulfonamide] | < 200 nM
Nc1nc(NC2CCCC2)cc(-c2cccc(Cl)c2Cl)n1 [Example 65, 4-N-cyclopentyl-6-(2,3-dichlorophenyl)pyrimidine-2,4-diamine] | < 200 nM
CNc1cc(-c2ccc(S(C)(=O)=O)cc2)nc(N)n1 [Example 43, 6-(4-methanesulfonylphenyl)-4-N-methylpyrimidine-2,4-diamine] | < 200 nM
CNc1cc(-c2ccc(C(=O)OC)cc2)nc(N)n1 [Example 103, methyl 4-[2-amino-6-(methylamino)pyrimidin-4-yl]benzoate] | < 200 nM
CNC(=O)c1ccc(-c2cc(NC)nc(N)n2)cc1 [Example 110, 4-[2-amino-6-(methylamino)pyrimidin-4-yl]-N-methylbenzamide] | < 200 nM
CNc1cc(-c2cccc3[nH]ccc23)nc(N)n1 [Example 174, 6-(1H-indol-4-yl)-4-N-methylpyrimidine-2,4-diamine] | < 200 nM
Cc1cccc(-c2cc(N[C@@H](C)C3CC3)nc(N)n2)c1C [Example 168, 4-N-[(1S)-1-cyclopropylethyl]-6-(2,3-dimethylphenyl)pyrimidine-2,4-diamine] | < 200 nM
CNc1cc(-c2ccc3[nH]ccc3c2)nc(N)n1 [Example 148, 6-(1H-indol-5-yl)-4-N-methylpyrimidine-2,4-diamine] | < 200 nM
Nc1nc(NCC2CC2)cc(-c2ccccc2)n1 [Example 6, 4-N-(cyclopropylmethyl)-6-phenylpyrimidine-2,4-diamine] | < 200 nM
CNc1cc(-c2ccccc2Cl)nc(N)n1 [Example 77, 6-(2-chlorophenyl)-4-N-methylpyrimidine-2,4-diamine] | < 200 nM
CNc1cc(-c2cc(Cl)ccc2C)nc(N)n1 [Example 74, 6-(5-chloro-2-methylphenyl)-4-N-methylpyrimidine-2,4-diamine] | < 200 nM
Nc1nc(NCCc2ccc(Cl)cc2)cc(-c2ccc(Cl)c(Cl)c2Cl)n1 [Example 419, 4-N-[2-(4-Chlorophenyl)ethyl]-6-(2,3,4-trichlorophenyl)pyrimidine-2,4-diamine] | < 200 nM
CNc1cc(-c2cc(OC)ccc2OC)nc(N)n1 [Example 203, 6-(2,5-dimethoxyphenyl)-4-N-methylpyrimidine-2,4-diamine] | < 200 nM

More lines, now with the values ahead:

IC50 | Compound
< 200 nM | CNc1cc(-c2cccc(F)c2F)nc(N)n1 [Example 93, 6-(2,3-difluorophenyl)-4-N-methylpyrimidine-2,4-diamine]
< 200 nM | CNc1cc(-c2cccc(NC(=O)C(O)c3ccccc3)c2)nc(N)n1 (stereo not drawn) [Example 324, N-{3-[2-Amino-6-(methylamino)pyrimidin-4-yl]phenyl}-2-hydroxy-2-phenylacetamide]
< 200 nM | Nc1nc(NC23CC4CC(CC2C4)C3)cc(-c2cccc(Cl)c2Cl)n1 [Example 304, 6-(2,3-Dichlorophenyl)-4-N-{tricyclo[3.3.1.0^3,7]nonan-3-yl}pyrimidine-2,4-diamine]
< 200 nM | Cc1cccc(-c2cc(NCCCNS(=O)(=O)c3cccc(F)c3)nc(N)n2)c1C [Example 381, N-(3-{[2-Amino-6-(2,3-dimethylphenyl)pyrimidin-4-yl]amino}propyl)-3-fluorobenzene-1-sulfonamide]
< 200 nM | Cc1ccc(Cl)cc1-c1cc(NCCc2ccc(Cl)cc2)nc(N)n1 [Example 222, 6-(5-chloro-2-methylphenyl)-4-N-[2-(4-chlorophenyl)ethyl]pyrimidine-2,4-diamine]
< 200 nM | Nc1nc(NC2CCOC2)cc(-c2cccc(Cl)c2Cl)n1 (stereo not drawn) [Example 67, 6-(2,3-dichlorophenyl)-4-N-(oxolan-3-yl)pyrimidine-2,4-diamine]
< 200 nM | Cc1cccc(-c2cc(NCCc3c[nH]cn3)nc(N)n2)c1C [Example 408, 6-(2,3-dimethylphenyl)-4-N-[2-(1H-imidazol-4-yl)ethyl]pyrimidine-2,4-diamine]
< 200 nM | Cc1cccc(-c2cc(NCCNc3ccc(Br)cn3)nc(N)n2)c1C [Example 451, 4-N-{2-[(5-bromopyridin-2-yl)amino]ethyl}-6-(2,3-dimethylphenyl)pyrimidine-2,4-diamine]
< 200 nM | Cc1cccc(-c2cc(NCCc3cccc(O)c3)nc(N)n2)c1C [Example 269, 3-(2-{[2-amino-6-(2,3-dimethylphenyl)pyrimidin-4-yl]amino}ethyl)phenol]
< 200 nM | Cc1cccc(-c2cc(NCCCNC(=O)OC(C)(C)C)nc(N)n2)c1C [Example 275, tert-butyl N-(3-{[2-amino-6-(2,3-dimethylphenyl)pyrimidin-4-yl]amino}propyl)-carbamate]
< 200 nM | Cc1cccc(-c2cc(NCCc3n[nH]c(-c4ccncc4)n3)nc(N)n2)c1C [Example 349, 6-(2,3-dimethylphenyl)-4-N-{2-[5-(pyridin-4-yl)-1H-1,2,4-triazol-3-yl]ethyl}pyrimidine-2,4-diamine]
< 200 nM | Nc1nc(NC2CC2)cc(-c2cccc3[nH]ccc23)n1 [Example 230, 4-N-cyclopropyl-6-(1H-indol-4-yl)pyrimidine-2,4-diamine]
< 200 nM | CNc1cc(-c2ccc(F)cc2OC)nc(N)n1 [Example 73, 6-(4-fluoro-2-methoxyphenyl)-4-N-methylpyrimidine-2,4-diamine]
< 200 nM | Cc1cccc(-c2cc(NCCNC(=O)OCc3ccccc3)nc(N)n2)c1C [Example 273, benzyl N-(2-{[2-amino-6-(2,3-dimethylphenyl)pyrimidin-4-yl]amino}ethyl)-carbamate]
< 200 nM | CNc1cc(-c2cccc(NC(=O)C(C)=O)c2)nc(N)n1 [Example 315, N-{3-[2-Amino-6-(methylamino)pyrimidin-4-yl]phenyl}-2-oxopropanamide]
< 200 nM | CNc1cc(-c2ccc(CO)cc2)nc(N)n1 [Example 142, {4-[2-amino-6-(methylamino)pyrimidin-4-yl]phenyl}methanol]
< 200 nM | Cc1ccc(CCNc2cc(-c3cccc(C)c3C)nc(N)n2)cc1 [Example 127, 6-(2,3-dimethylphenyl)-4-N-[2-(4-methylphenyl)ethyl]pyrimidine-2,4-diamine]
< 200 nM | CNc1cc(-c2cc(Cl)ccc2F)nc(N)n1 [Example 210, 6-(5-chloro-2-fluorophenyl)-4-N-methylpyrimidine-2,4-diamine]
< 200 nM | C=Cc1ccc(-c2cc(NC)nc(N)n2)cc1 [Example 111, 6-(4-ethenylphenyl)-4-N-methylpyrimidine-2,4-diamine]
< 200 nM | CNc1cc(-c2cccc(NC(=O)c3ccccc3O)c2)nc(N)n1 [Example 326, N-{3-[2-Amino-6-(methylamino)pyrimidin-4-yl]phenyl}-2-hydroxybenzamide]

— patent US10174029B2, “Pyrimidine-2,4-diamine derivatives for treatment of cancer” (THOMAS HELLEDAYS STIFTELSE FOR MEDICINSK FORSKNING, priority 2012, dated 2019)
